Laboratory results as given in patent US20260124170A1, “PHARMACEUTICAL COMPOSITION COMPRISING METABOLITE OF ENAVOGLIFLOZIN, AND USE THEREOF” (DAEWOONG PHARMACEUTICAL CO., LTD., priority 2022, published 2026).
Where “and” joins values, the source holds several entries; their conditions need not be identical. Equal entries are not always repeated. Where two headings read alike, the source gives them in different places. Marks after values point to notes of the source that are not given here.

Legend:
Assay type in all cases: cell-based
SGLT1 = target: T1, SGLT1 (Homo sapiens, UniProt P13866); assay: Change in SGLT1 inhibition according to drug pretreatment time (CHO-SGLT1); details: for IC50: CHO-SGLT1; for Change in SGLT1 inhibition as exposure time increased: pretreatment 0, 1, 2 h, one-way ANOVA
T1 construct: expressed in transfected cells
T1 sequence (P13866 1-664): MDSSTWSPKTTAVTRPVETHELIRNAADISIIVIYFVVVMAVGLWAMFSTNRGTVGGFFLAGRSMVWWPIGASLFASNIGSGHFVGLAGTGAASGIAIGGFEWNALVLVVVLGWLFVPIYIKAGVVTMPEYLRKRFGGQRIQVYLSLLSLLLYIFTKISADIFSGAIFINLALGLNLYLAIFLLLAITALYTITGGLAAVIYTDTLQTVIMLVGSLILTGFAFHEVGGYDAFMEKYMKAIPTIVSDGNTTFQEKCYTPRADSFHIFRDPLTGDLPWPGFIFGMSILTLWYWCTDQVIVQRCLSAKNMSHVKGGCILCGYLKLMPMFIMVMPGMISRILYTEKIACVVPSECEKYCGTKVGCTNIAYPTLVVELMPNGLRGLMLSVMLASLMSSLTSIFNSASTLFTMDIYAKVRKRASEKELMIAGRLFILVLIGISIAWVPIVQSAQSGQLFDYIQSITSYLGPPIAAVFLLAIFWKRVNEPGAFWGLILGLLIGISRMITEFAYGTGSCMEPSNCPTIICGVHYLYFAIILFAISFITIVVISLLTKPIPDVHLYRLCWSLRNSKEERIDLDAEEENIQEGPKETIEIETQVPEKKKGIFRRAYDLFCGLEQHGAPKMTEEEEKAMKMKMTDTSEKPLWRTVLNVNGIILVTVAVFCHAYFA
Source text: All data values are expressed as the mean±SD of […].

SGLT2 [1] = target: T2, SGLT2 (Homo sapiens, UniProt P31639); assay: SGLT2 inhibition with varied substrate AMG concentration (Dixon / L-B plot); details: for Inhibition mechanism, SGLT2: CHO-SGLT2, varied AMG concentration; for Ki: from slope of L-B plot, CHO-SGLT2
T2 construct: expressed in transfected cells
T2 sequence (P31639 1-672): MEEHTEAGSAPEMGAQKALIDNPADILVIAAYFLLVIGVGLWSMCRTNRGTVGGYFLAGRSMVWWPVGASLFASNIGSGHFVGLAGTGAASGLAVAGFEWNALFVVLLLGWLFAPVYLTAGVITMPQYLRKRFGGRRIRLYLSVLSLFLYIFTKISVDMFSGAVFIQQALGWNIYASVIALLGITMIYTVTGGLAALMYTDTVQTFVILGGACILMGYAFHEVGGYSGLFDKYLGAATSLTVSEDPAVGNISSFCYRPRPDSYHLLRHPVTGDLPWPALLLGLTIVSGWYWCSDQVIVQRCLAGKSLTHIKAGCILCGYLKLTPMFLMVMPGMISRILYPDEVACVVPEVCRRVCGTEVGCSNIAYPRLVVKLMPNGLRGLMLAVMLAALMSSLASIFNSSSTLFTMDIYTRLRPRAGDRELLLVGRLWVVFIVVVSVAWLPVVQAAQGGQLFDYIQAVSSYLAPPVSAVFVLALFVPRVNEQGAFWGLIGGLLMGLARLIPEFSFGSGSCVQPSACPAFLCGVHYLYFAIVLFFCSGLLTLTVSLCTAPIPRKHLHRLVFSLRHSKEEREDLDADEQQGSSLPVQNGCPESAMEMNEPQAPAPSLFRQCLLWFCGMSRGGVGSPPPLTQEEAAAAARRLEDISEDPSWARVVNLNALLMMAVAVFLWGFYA
Description: From these, the inhibition mechanism was confirmed, and the inhibition constant was calculated.

SGLT2 [2] = target: T2, SGLT2; assay: Whole-cell patch clamp glucose current, binding and dissociation, CHO-SGLT2; details: for Dissociation degree T1/2, off (s), SGLT2: washout
Description: When SGLT1- and SGLT2-overexpressing cell lines (CHO-SGLT1, CHO-SGLT2 stable cells) were cultured to reach 60% confluency, the cells were treated with 0.05% trypsin to detach the cells from the bottom of the plate, suspended in 200 μL of culture medium, and used at room temperature.
Glucose reabsorption is induced by the Na^+ electrochemical potential gradient in the kidneys via SGLT2, and glucose diffuses across the cell membrane into the blood via glucose transporter 2 (GLUT-2), which enables facilitated glucose transport. While one Na^+ ion is absorbed per glucose molecule through SGLT2, two Nations are absorbed per glucose molecule through SGLT1. Therefore, by varying the composition of the buffer, only the glucose current was recorded, excluding the Na^+ current.
The experiment was conducted as described below.
1) Using a Narishige puller, a glass micropipette was made in two stages of 62.7° C. and 57° C., filled with an internal solution (145 mM CsCl, 5 mM NaCl, 10 mM HEPES, 11 mM ethylene glycol-bis(2-aminoethylether)-N,N,N′,N′-tetraacetic acid (EGTA), pH 7.2), and then inserted into the Ag/AgCl2 electrode of the patch clamp head-stage.
2) SGLT1 or SGLT2 cells were seeded on a chamber which was coated with poly-L-lysine in advance, and then an external solution (150 mM NaCl, 10 mM HEPES, 1 mM CaCl2), 1 mM MgCl2, pH 7.4) was flowed to ensure that the cells were sufficiently submerged. A temperature control device was used to maintain the temperature of the chamber at 36.5±0.5° C.
3) Using a micromanipulator, the glass micropipette was attached to the cell membrane to create a giga-ohm seal, which was then ruptured to detach the cell membrane (whole-cell mode, 3 to 5 MΩ).
4) The cells were fixed at −60 mV (holding potential), and the current [I^total current (Na^+/Glucose current (pA))] was measured in a gap-free data acquisition mode.
5) The external solution was continuously flowed into the chamber containing the cells, and the current (I^total) was recorded for about 30 seconds to 1 minute (stabilization), and then the external solution with added glucose (Na^+/Glucose external) (150 mM NaCl, 10 mM HEPES, 1 mM CaCl2), 1 mM MgCl2, 100 mM glucose, pH 7.4) was flowed to record the glucose current (I^glucose). Then, the cells were exposed to the external solution with added glucose containing one concentration of the compound for two minutes, and the glucose current suppressed by the compound was recorded.
7) After confirming the recovery of the current, the solution was replaced with a sodium-free external solution (Na^+-free external) (150 mM Choline-Cl, 1 mM CaCl2), 1 mM MgCl2, pH 7.4) and the Na^+ current was recorded. After the current was stabilized, the solution was replaced with the external solution to record the current in the resting state when the cells were not stimulated, thereby securing the reliability of the experimental system.
For statistical analysis of data, pCLAMP10.4 (Molecular Devices, LLC, San Jose, CA, USA) or Origin6.0 (OriginLab, Northampton, MA, USA) was used.
The test results were expressed as the mean±SD of the mean. Statistical significance was verified using the nonparametric Kruskal-Wallis test using Statistical Package for the Social Sciences (SPSS) for Windows (version 26.0, IBM Corp., Armonk, NY, USA). The significance level was set at p<0.05.

[3] = IC50 according to pretreatment time (nM), SGLT1, 1 h, 1 h pretreatment in sodium-free buffer
[4] = IC50 according to pretreatment time (nM), SGLT1, 2 h, 2 h pretreatment in sodium-free buffer
[5] = no pretreatment, read-out: IC50 according to pretreatment time (nM), SGLT1, 0 h

Compound	IC50 (SGLT1; [3]) [nM]	IC50 (SGLT1; [4]) [nM]	IC50 (SGLT1; [5]) [nM]	Change in SGLT1 inhibition as exposure time increased (SGLT1)	Inhibition mechanism, SGLT2 (SGLT2 [1])	Ki (SGLT2 [1]) [nM]	Dissociation rate from SGLT2, times slower than enavogliflozin (SGLT2 [2]; ratio of T1/2,off) [times]	Binding affinity T1/2, on (s), SGLT2 (SGLT2 [2]; treatment concentration 200 μM)	Dissociation degree T1/2, off (s), SGLT2 (SGLT2 [2]; treatment concentration 200 μM)	Dissociation from SGLT2, times slower than dapagliflozin (SGLT2 [2]; ratio of T1/2,off)	Binding affinity T1/2, on (s), SGLT2 (SGLT2 [2]; treatment concentration 100 μM) [s]	Dissociation degree T1/2, off (s), SGLT2 (SGLT2 [2]; treatment concentration 100 μM)	Dissociation degree T1/2, off (s), SGLT2 (SGLT2 [2]; treatment concentration 100 μM, listed as enavogliflozin) [s]
OC[C@H]1O[C@@H](c2cc(Cc3ccc(C4(O)CC4)cc3)c(Cl)c3c2CCO3)[C@H](O)[C@@H](O)[C@@H]1O [M2, (2S,3R,4R,5S,6R)-2-(7-chloro-6-(4-(1-hydroxycyclopropyl)benzyl)-2,3-dihydrobenzofuran-4-yl)-6-(hydroxymethyl)tetrahydro-2H-pyran-3,4,5-triol]	1020 ± 225	1180 ± 177	1080 ± 71	did not show any significant change or increase in inhibition	Competitive inhibition	6.18	1.38	51.8 ± 10.5*^, + s	540.4 s and 540.4 ± 217.0^+, # s				
OC[C@H]1O[C@@H](c2cc(Cc3ccc(C4CC4)cc3)c(Cl)c3c2CCO3)[C@H](O)[C@@H](O)[C@@H]1O [Enavogliflozin, (2S,3R,4R,5S,6R)-2-(7-chloro-6 (4-cyclopropylbenzyl)-2,3-dihydrobenzofuran-4-yl)-6-(hydroxymethyl)tetrahydro-2H-pyran-3,4,5-triol]	889 ± 238	829 ± 194	867 ± 163	did not show any significant change or increase in inhibition	Competitive inhibition	0.411				about 2.8 times	29.5 ± 5.5	745.5^+, # s	745.5
OC[C@H]1O[C@@H](c2cc(Cc3ccc(C4CC4)cc3)c(Cl)c3c2CC(O)O3)[C@H](O)[C@@H](O)[C@@H]1O (stereo partly drawn) [M1, (2S,3R,4R,5S,6R)-2-(7-chloro-6-(4-cyclopropylbenzyl)-2-hydroxy-2,3-dihydrobenzofuran-4-yl)-6-(hydroxymethyl)tetrahydro-2H-pyran-3,4,5-triol]	103 ± 22.4	76.6 ± 1.2	29.2 ± 13.5	significantly increased	Competitive inhibition	7.49	2	52.5 ± 3.8*^, + s	369.9 s and 369.9 ± 56.5 ^ s				
